Literature values in US6384084B2, “Histochrome and its therapeutic use in ophthalmology” (Tikhookeansky Institut Bioorganicheskoi Khimii …, priority 1998, dated 2002).

Columns and labels:
[1] = rabbits, 0.5% solution, subconjunctival and parabulbar
[2] = patients, 0.5% solution

SMILES: CCc1c(O)c(O)c2c(c1O)C(=O)C(O)=C(O)C2=O [echinochrome, 2,3,5,6,8-pentahydroxy-7-ethyl-1,4-naphthoquinone]
- Effect on epithelization of the cornea and inflammatory processes in eye burns [1]: able to facilitate epithelization of the cornea at early stages of the treatment of eye burns and to alleviate inflammatory processes in the eye
- Pain at the time of administration [2]: patients experienced acute pain at the time of administration

SMILES: CCc1nc(C)ccc1O [Emoxipin]
- Resorption of intraocular hemorrhages (injection of a 1% solution): facilitates the resorption of intraocular hemorrhages
- Adverse effect in the course of therapy (monitoring of blood coagulation required): liable to cause reccurrent hemorrhages
